Experiments:
[1] = system: pancreas external secretion; test: Quantity of pancreatic juice secreted after pancreozymin in anesthetized rats; format: in vivo, rat (male Wistar)
Method: (§1) Male Wistar rats weighing 300-400 g were fasted for 14-20 hours and then anesthetized with 1 g/Kg of urethane. A stainless steel tube was inserted into the common bile duct at the opening to the duodenum and fixed thereto (pancreatic cannula) to take out pancreatic juice. The common bile duct was ligated at an upper portion and a polyethylene tube was inserted into the bile duct and fixed thereto to allow the bile to flow outward. The pylorus was ligated. The medicament was administered into a femoral vein through the polyethylene tube.
(§2) The quantity of the pancreatic juice was measured by using a calibrated silicone rubber tube fitted to the pancreatic duct cannula. The tube was changed every 10 minutes.
(§3) Coenzyme Q10 was solubilized in water with Nikkol HCO-60 before use. An aqueous solution of Nikkol HCO-60 was used as placebo.
(§4) Coenzyme Q10 (3 mg/100 g body weight) and the placebo were administered to the rats through the femoral vein. After 60 minutes, pancreozymin (0.2 Crick, Harper and Raper unit/100 g body weight) was administered through the femoral vein.
(§5) FIGS. 1 and 2 show the quantities of pancreatic juice secreted when placebo was administered and when Coenzyme Q10 was administered, respectively. In FIGS. 1 and 2, the ordinates represent the quantity of the pancreatic juice secreted (μl/min./100 g body weight) and the abscissae represent time (min.). FIGS. 3 and 4 show the quantities of amylase secreted when placebo was administered and when Coenzyme Q10 was administered, respectively. In FIGS. 3 and 4, the ordinates represent quantity of amylase secreted (unit/min./100 g body weight) and the abscissae represent time (min.). In FIGS. 1-4, the values are average values ± standard deviation. The arrows in the figures indicate the times when Coenzyme Q10, placebo and pancreozymin were administered.

[2] = system: rabbits; test: Subacute oral toxicity test in rabbits (23 days); format: in vivo, rabbit
Method: Coenzyme Q10 was compulsorily and orally administered every day for 23 days to each group consisting of six male rabbits and five female rabbits. The dose was 6, 60 and 600 mg/Kg/day, respectively. Coenzyme Q10 was used in the form of gum Arabic suspension, whereas the solution containing gum Arabic alone was used as the control group, On the 24th day, blood samples were collected from all the animals, and three males and two females from each group were then selectively autopsied.

[3] = system: rats; test: Teratogenesis test in rats; format: in vivo, rat; details: rats, 6, 60, 600 mg/Kg/day
[4] = system: rats of Wistar strain; test: Acute toxicity test in rats (single high dose); format: in vivo, rat (Wistar strain)
Text: (§6) In order to evaluate the acute toxicity of a single high dose administration of Coenzyme Q10, male and female rats of Wistar strain and male and female mice of ICR-JCL strain were used, and oral, intramuscular, subcutaneous, and intravenous administrations were studied. For the oral administration of Coenzyme Q10, a gum Arabic suspension was used. For the intramuscular, subcutaneous and intravenous administrations, Coenzyme Q10 was used as a solution containing a nonionic surfactant, Nikkol HCO-60 . Nikkol HCO-60 is a trade mark of a non-ionic surfacent comprised of hydrogenated castor oil/polyoxyethylene-60 mole ether available from Nikko Chemicals, Co. Ltd., Japan.
(§7) Observation was carried out for 7 days by using six males and six females for each dose group.

[5] = system: rats of Wistar strain; test: Subacute oral toxicity test in rats (5 weeks); format: in vivo, rat (Wistar strain)
Method: (§8) Coenzyme Q10 was compulsorily and orally administered every day for 5 weeks to each group consisting of 10 male rats and 10 female rats of Wistar strain. The dose was 40, 200, and 1000 mg/Kg/day, respectively. Coenzyme Q10 was used in the form of gum Arabic suspension, while the solution containing gum Arabic alone was used as the control group. Collection of blood and urine samples and autopsies were carried out 5 weeks after the initiation of administration.

[6] = system: mice; test: Teratogenesis test in mice; format: in vivo, mouse; details: mice, 6, 60, 600 mg/Kg/day
[7] = system: mice of ICR-JCL strain; test: Acute toxicity test in mice (single high dose); format: in vivo, mouse (ICR-JCL strain)
Text: as §6, §7

[8] = system: rats of Wistar strain; test: Chronic oral toxicity test in rats (26 weeks); format: in vivo, rat (Wistar strain)
Method: Coenzyme Q10 was compulsorily and orally administered to each group consisting of 10 male rats and 10 female rats of Wistar strain for consecutive 26 weeks in a ratio of 6 days a week. The dose was 6, 60 and 600 mg/Kg/day, respectively. Coenzyme Q10 was used in the form of gum Arabic suspension, whereas the solution containing gum Arabic alone is used as the control group. Collection of blood and urine samples and autopsies were carried out 26 weeks after the administration.

[9] = Solubility of Coenzyme Q10 (properties); format: physicochemical
Text: Coenzymes Q used in the present invention, for example, Coenzyme Q10 (the compound in which n = 10 in the above formula), can be mainly obtained synthetically, although it is possible to extract Coenzyme Q from animal organs. The physical and chemical properties of Coenzyme Q10 produced synthetically are as follows.

[10] = Overall conclusion of acute, subacute, chronic toxicity and teratogenesis tests; format: in vivo; details: conclusion from all toxicity tests
Text: as §6, §7, §8
Coenzyme Q10 was compulsorily and orally administered every day for 23 days to each group consisting of six male rabbits and five female rabbits. […]

[11] = system: amylase of the pancreatic juice; test: Quantity of amylase secreted in pancreatic juice after pancreozymin in anesthetized rats; format: in vivo, rat (male Wistar)
Method: as §1, §2
Amylase activity of the pancreatic juice was determined by Kanno's method [Journal of Physiology (London) Vol. 245, P. 599 (1975)]. One amylase unit indicates a unit of amylase activity producing 1 mg of maltose by incubation of 37° C for 5 minutes.
as §3, §4, §5

[12] = 3 mg/100 g femoral vein, after pancreozymin
[13] = 10 minutes after pancreozymin, Coenzyme Q10 3 mg/100 g i.v. (femoral vein) 60 minutes before
[14] = 6, 60, 600 mg/Kg/day oral, 23 days
[15] = any administration group, 7 days
[16] = intramuscular, Nikkol HCO-60 solution, single dose, 7 days
[17] = intravenous, Nikkol HCO-60 solution, single dose, 7 days
[18] = maximum dose in each administration route
[19] = oral, gum Arabic suspension, single dose, 7 days observation
[20] = relative to maximum doses of Table 1
[21] = subcutaneous, Nikkol HCO-60 solution, single dose, 7 days
[22] = 40, 200, 1000 mg/Kg/day oral, 5 weeks
[23] = 6, 60, 600 mg/Kg/day oral, 26 weeks
[24] = spontaneous pneumonia and aspiration pneumonia due to erroneous administration, dose group not stated

COC1=C(OC)C(=O)C(C/C=C(\C)CC/C=C(\C)CC/C=C(\C)CC/C=C(\C)CC/C=C(\C)CC/C=C(\C)CC/C=C(\C)CC/C=C(\C)CC/C=C(\C)CCC=C(C)C)=C(C)C1=O [Coenzyme Q10]
fourth response, quantity of pancreatic juice, P versus placebo [1, 12]: < 0.05
quantity of pancreatic juice secreted, comparison with placebo group [1, 12]: significantly superior
second response, quantity of pancreatic juice, P versus placebo [1, 12]: < 0.02
third response, quantity of pancreatic juice, P versus placebo [1, 12]: < 0.02
first response, quantity of pancreatic juice secreted, ratio to placebo group [1, 13]: about 1.5 times
general condition and increase of body weight versus control group [2, 14]: no difference
hematological test and biochemical test of blood [2, 14]: Abnormal findings were not obtained
weight of each organ [2, 14]: no effect on the weight of each organ
electron-microscopic observation of liver ([2]; 7th, 14th and 24th days): there were not recognized abnormal findings on the minute structure of the liver
macroscopical and histological observation ([2]; hematoxylin-eosine staining and liver fat staining): abnormalities were not recognized
toxicity (conclusion) ([2]; oral, 23 days): there were not recognized the findings wherein the toxicity of Coenzyme Q10 will be suggested
adverse effects in mothers, fetuses and newborns [3]: no adverse effects were noted
acute toxicity (conclusion) [4]: extremely low
general condition, body weight, food intake, autopsy findings [4, 15]: no change was recognized
Maximum dose (no case of deaths), intramuscular [4, 16]: 500 mg/kg
Maximum dose (no case of deaths), intravenous [4, 17]: 250 mg/kg
deaths [4, 18]: no case of deaths
Maximum dose (no case of deaths), oral [4, 19]: 4000 mg/kg
LD50 [4, 20]: far higher than the maximum dose mentioned above
Maximum dose (no case of deaths), subcutaneous [4, 21]: 500 mg/kg
general condition and body weight versus control group [5, 22]: no difference
hematological test and biochemical test of blood and urine [5, 22]: No significant change was recognized
weight of each organ [5, 22]: no significant change
macroscopical and histological observation ([5]; hematoxylin-eosine staining and liver fat staining, 5 weeks): abnormality was not recognized
toxicity (conclusion) ([5]; oral, 5 weeks): there was not recognized the toxicity seemingly due to the administration
dead animals during the experiment ([5]; spontaneous pneumonia and aspiration pneumonia due to error of administration, dose group not stated): four
adverse effects in mothers, fetuses and newborns [6]: no adverse effects were noted
acute toxicity (conclusion) [7]: extremely low
general condition, body weight, food intake, autopsy findings [7, 15]: no change was recognized
Maximum dose (no case of deaths), intramuscular [7, 16]: 500 mg/kg
Maximum dose (no case of deaths), intravenous [7, 17]: 250 mg/kg
deaths [7, 18]: no case of deaths
Maximum dose (no case of deaths), oral [7, 19]: 4000 mg/kg
LD50 [7, 20]: far higher than the maximum dose mentioned above
Maximum dose (no case of deaths), subcutaneous [7, 21]: 500 mg/kg
body weight [8, 23]: increased the same as that of the control group
general condition versus control group [8, 23]: no difference
weights of organs ([8]; 26 weeks): no significant increase and decrease
leukocytal percentages ([8]; hematological findings, 26 weeks): some increase and decrease, but do not provide the mutual relation depending upon the dose; the percentages being within the range of physiological fluctuations
macroscopical and histological observation ([8]; hematoxylin-eosine staining and liver fat staining, versus control group): abnormalities were not recognized
toxicity (conclusion) ([8]; oral, 26 weeks): no toxicity was observed
deaths, females [8, 24]: three
deaths, males [8, 24]: 11 males
biochemical tests of blood and urine ([8]; versus control group, 26 weeks): No significant changes were recognized
solubility in acetone ([9]; acetone): soluble
solubility in benzene ([9]; benzene): easily soluble
solubility in carbon tetrachloride ([9]; carbon tetrachloride): easily soluble
solubility in chloroform ([9]; chloroform): easily soluble
solubility in ethanol ([9]; ethanol): insoluble
solubility in ether ([9]; ether): soluble
solubility in methanol ([9]; methanol): hardly soluble
solubility in water ([9]; water): hardly soluble
overall safety [10]: a very safe drug, without side-effects
second through fourth responses, quantity of amylase, P versus placebo ([11]; 3 mg/100 g femoral vein, after pancreozymin, all cases): higher than 0.05
first response, quantity of amylase secreted, ratio to placebo group [11, 13]: about 1.6 times
quantity of amylase secreted, comparison with placebo group ([11]; second through fourth responses, 3 mg/100 g femoral vein, after pancreozymin): significantly superior

Reference: US4068001A, “Method of medical treatment of pancreatic insufficiency” (priority 1976, dated 1978)
